Assays:
[1] = test system: M-NSF-60; experiment: Proliferation of M-NSF-60 cells with M-CSF (CCK-8, 72 hours); assay type: cell-based, mouse; settings: Mus musculus; M-CSF 50 ng/ml in medium, 72 hours incubation, CCK-8; read-out: M-NSF-60 (GI50/μM)
Method: (§1) The incubated cells were detected by CCK-8 (purchased from MedChem Express, China) cell viability detection kit (CCK-8 can be reduced by dehydrogenases in living cells to a highly water-soluble yellow formazan product, and the amount of the generated formazan product is proportional to the number of living cells). The number of living cells was quantified by a microplate reader, and the GI50 for each compound was calculated (the results are shown in Table 2).

[2] = molecular target: T1, TEL-CSF1R-BaF3 (Homo sapiens, UniProt P07333); experiment: Proliferation of TEL-CSF1R-BaF3 cells (CCK-8, 72 hours); assay type: cell-based; settings: 72 hours incubation, CCK-8
T1 construct: expressed in transfected cells; host or cells: mouse BaF3 cells (ATCC), retroviral transduction with MSCV-Puro vector, IL-3 withdrawn; the other entry of the earlier key: ETV6 (P41212, Transcription factor ETV6)
T1 sequence (P07333 582-910 limits assumed): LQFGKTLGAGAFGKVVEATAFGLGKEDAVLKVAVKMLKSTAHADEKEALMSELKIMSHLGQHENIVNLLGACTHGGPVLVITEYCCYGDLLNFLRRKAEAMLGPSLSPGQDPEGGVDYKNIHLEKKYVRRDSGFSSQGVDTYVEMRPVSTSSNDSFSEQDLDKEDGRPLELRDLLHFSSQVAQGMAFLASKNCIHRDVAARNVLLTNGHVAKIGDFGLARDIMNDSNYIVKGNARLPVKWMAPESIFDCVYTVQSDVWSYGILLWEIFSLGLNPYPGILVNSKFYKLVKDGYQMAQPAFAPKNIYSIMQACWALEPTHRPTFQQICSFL
Method: as §1
The construction method of the TEL-CSF1R-BaF3 cell line (a cell line stably expressing CSF1R kinase) was as follows: the sequence of human CSF1R kinase region was amplified by PCR and inserted into the MSCV-Puro vector (Clontech) with an N-terminal TEL fragment, and stably transferred into mouse BaF3 cells (purchased from ATCC, USA) by a retroviral method, and IL-3 growth factor was removed, finally a cell line dependent on CSF1R transferred protein was obtained.

[3] = test system: MC38 cells; experiment: In vivo efficacy in MC38 cell tumor transplantation mouse model; settings: 50 mg/kg oral once a day
Method: (§2) In this example, the experimental effects of Compound 2 and the control compound PLX3397 (purchased from MedChem Express, China) in MC38 and 4T1 mouse models were tested respectively.
(§3) The experimental procedure was as follows: • (1) C57BL/6J male mice for use as MC38 transplanted tumor model and Balb/c male mice for use as 4T1 transplanted tumor model, which were 6 weeks old, were purchased from GemPharmatech Co., Ltd, Jiangsu. All the above mice were raised in an SPF laboratory, and the drinking water and padding had been sterilized by high pressure sterilization. All operations related to mice were performed under sterile conditions. • (2) On day 0, approximately 1×10^6 MC38 cells (purchased from ATCC) were injected subcutaneously into the left back of each of the C57BL/6J mice, and approximately 1×10^6 4T1 cells (purchased from ATCC) were injected subcutaneously into the left back of each of the Balb/c mice. • (3) For the MC38 mouse model, starting from the 6th day, the corresponding mice were orally administered with methylcellulose (HKI) (purchased from China National Pharmaceutical Group Corporation) solvent once a day (5 mice); Compound 2 at a dose of 50 mg/kg mouse weight once a day (5 mice); PLX3397 at a dose of 50 mg/kg mouse weight once a day (5 mice). For the 4T1 mouse model, starting from the 6th day, the corresponding mice were orally administered with 10% HS-15 (purchased from BASF, Germany) solvent (5 mice); Compound 2 at a dose of 50 mg/kg mouse weight once a day (5 mice); PLX3397 at a dose of 50 mg/kg mouse weight once a day (5 mice). • (4) Starting from the 6th day, the length/width of the subcutaneous tumor was measured with a vernier caliper every day, and the weight of the mice was recorded every day to determine the effects of Compound 2 and control compound PLX3397 on the weight of mice in different model mice. The results are shown in FIGS. 3 and 6. • (5) The growth trends of subcutaneous tumors in mice of different models were statistically analyzed. The tumor volume was calculated using the following method: length×width×width/2 mm^3. The results are shown in FIGS. 4 and 7. • (6) Isolation of tumor-infiltrating lymphocytes: Tumor tissue was first minced (tissue block less than 1 mm^3) with a surgical blade, resuspended in 6 ml of digestion solution (collagenase IV and 0.005% DNaseI enzyme, both purchased from Sigma, USA), and the mixture was transferred to a 15-ml centrifuge tube. The centrifuge tube was then placed in a shaker at 37° C. and digested with shaking at 220 r/min for 2 hours. The cells were sieved through a 200-mesh sieve and collected in a 50-ml centrifuge tube, and centrifuged at 1500 rpm for 10 minutes. The supernatant was then discarded, and 10 ml of DMEM medium (10% FBS) (purchased from GIBCO, USA) was added to the tube to terminate the digestion. The tube was placed in a centrifuge, and centrifuged at 1500 rpm for another 10 minutes. The supernatant was discarded. At the same time, Percoll separation solution (purchased from Millipore, USA) was prepared, and 90% Percoll separation working solution was prepared using 10×PBS. To a 15 ml centrifuge tube, 3-4 ml of 70% Percoll separation solution was added. The cells were resuspended in 4 ml of 40% Percoll separation solution, and the cell mixture was added to the 70% Percoll separation solution. The centrifuge tube was placed in a centrifuge and subjected to density gradient centrifugation at 25° C., 1260 g, for 30 minutes (speed up 5, speed down 0). After the centrifugation, the centrifuge tube was placed on a centrifuge tube rack, the middle leukocyte layer was aspirated with a pipette, and added to 10 ml of PBS, they were mixed well and placed in a centrifuge, and centrifuged at 1500 rpm. The cell supernatant was discarded after 10 min and the cells were resuspended in 5 ml of PBS, centrifuged at 1500 rpm for another 10 min, and the washing process was repeated once. The cells obtained were leukocytes in the tumor tissue. […]

[4] = test system: 4T1 cells; experiment: In vivo efficacy in 4T1 cell tumor transplantation mouse model; settings: 4T1 model, 50 mg/kg oral once a day
Method: as §2, §3

GI50 [2]	SMILES	GI50 [1]	toxicity (mouse body weight) ([3]; FIG. 3)	inhibition effect of mouse tumors ([3]; FIG. 4)	toxicity (mouse body weight) ([4]; FIG. 6)	inhibition effect of mouse tumors ([4]; FIG. 7)
0.026 µM	COc1cc2nccc(Oc3ccc(NC(=O)Cc4ccc(Cl)c(C(F)(F)F)c4)cc3Cl)c2cc1OC [Example 38, N-(3-chloro-4-((6,7-dimethoxyquinolin-4-yl)oxy)phenyl)-2-(4-chloro-3-(trifluoromethyl)phenyl)acetamide]	0.32 µM	–	–	–	–
0.022 µM	COc1cc2nccc(Oc3ccc(NC(=O)Cc4ccc(Cl)c(C(F)(F)F)c4)cc3C#N)c2cc1OC [Example 39, N-(3-cyano-4-((6,7-dimethoxyquinolin-4-yl)oxy)phenyl)-2-(4-chloro-3-(trifluoromethyl)phenyl)acetamide]	0.61 µM	–	–	–	–
0.007 µM	COc1cc2nccc(Oc3ccc(NC(=O)Cc4ccccc4C(F)(F)F)cc3)c2cc1OC [Example 40, N-(4-((6,7-dimethoxyquinolin-4-yl)oxy)phenyl)-2-(2-(trifluoromethyl)phenyl)acetamide]	0.091 µM	–	–	–	–
–	FC(F)(F)c1ccc(CNc2ccc(Cc3c[nH]c4ncc(Cl)cc34)cn2)cn1 [PLX3397, reference compound]	–	no obvious toxicity	good inhibition effect of mouse tumors	no obvious toxicity	good inhibition effect of mouse tumors

Source: patent US20250186452A1, “NOVEL USE OF QUINOLINE COMPOUND” (TARAPEUTICS SCIENCE INC., priority 2022, published 2025)
